Laboratory results as given in patent US9040547B2, “Pyrrolopyrimidine and purine derivatives” (PFIZER INC., priority 2011, dated 2015).

How the values were obtained:
Type in all cases: cell-based
EGFR E746-A750 deletion = EGFR E746-A750 deletion (Homo sapiens, UniProt P00533, DEL746-750); assay: pEGFR Y1068 ELISA assay, NIH3T3/EGFR_E746-A750 deletion cells; settings: 3T3 Del cells, 2 hrs compound treatment; read-out: ELISA7E 3T3 Del IC50;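 note: sandwich ELISA on cell lysates detecting phospho-EGFR at Tyr1068, compounds run as 11-point threefold dilution series in duplicate, IC50 from inhibition of this phosphorylation signal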
[1] = target: T1, EGFR wildtype, endogenous (Homo sapiens, UniProt P00533); assay: pEGFR Y1068 ELISA assay, A549 cells; settings: full serum media, stimulated 10 min with EGF (40 ng/mL), read-out: pEGFRY1068 ELISAA549 IC50;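 note: sandwich ELISA of phospho-EGFR Tyr1068 in cell lysates, cells exposed to compound for 2 h before EGF stimulation, 11-point threefold dilution series run in duplicate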
T1 construct: A549 (EGFR wildtype, endogenous); host or cells: A549

PC-9 = assay: Cell proliferation assay (CellTiter-Glo), PC-9; settings: Homo sapiens, value marked (PC9), read-out: 3T3 del IC50, (PC9)
Description: (§1) Cell proliferation was measured using the CellTiter-Glo® Luminescent Cell Viability Assay. The assay involves the addition of a single reagent (CellTiter-Glo® Reagent) directly to cells cultured in serum-supplemented medium. The assay uses this one-step addition to induce cell lysis and generate a luminescent signal proportional to the amount of ATP present which is directly proportional to the number of metabolically active cells present in culture. The following cell lines were evaluated in this assay: NIH3T3/EGFR_L858R, NIH3T3/EGFR_E746-A750_deletion, NIH3T3/EGFR L858R+T790M, NIH3T3/EGFR_E746-A750_deletion+T790M, PC-9, PC9-DRH, NCI-H1975, and NCI-H3255. NIH/3T3 parental cells, NCI-H1975, and NCI-H3255 were purchased from the American Type Culture Collection (Manassas, Va.), and PC-9 cells were obtained from Japan. All cells were cultured according to recommendations. NIH/3T3 cells were grown in DMEM (Invitrogen, Carlsbad, Calif.) supplemented with 10% newborn calf serum (Invitrogen), and NIH3T3/EGFR mutant cells were grown in complete media with 5 μg/mL puromycin (Invitrogen). PC-9, NCI-H1975, and NCI-H3255 were grown in RPMI (Invitrogen, Carlsbad, Calif.) supplemented with 10% FBS (Sigma, St Louis, Mo.), and PC9-DRH cells were grown in complete media with 2 uM PF-00299804. Plasmids (pLPCX) with various EGFR constructs were made by GenScript (Piscataway, N.J.), and stable pools of NIH/3T3 cells expressing these constructs were made at Pfizer La Jolla. PC9-DRH cells were generated at Pfizer La Jolla by exposing cells to increasing concentrations of PF-00299804. Cells were plated in complete culture media (3000-5000 cells/well, 50 μl/well) on the bottom of white clear-bottom tissue culture treated microtiter plates (#3610, Corning Inc, Corning, N.Y.) and allowed to adhere overnight at 37° C., 5% CO2. The following day, compound dilution plates were prepared in 96 well clear V-bottom 0.5 mL polypropylene block plates (#3956, Corning, Inc). All cell lines were not evaluated for each compound. Each compound evaluated was prepared as a DMSO stock solution (10 mM). Compounds were tested in duplicate on each plate, with an 11-point serial dilution curve (1:3 dilution). Compound treatment (50 μl) was added from the compound dilution plate to the cell plate. The highest compound concentration was 1 or 10 μM (final), with a 0.3% final DMSO (#D-5879, Sigma, St Louis, Mo.) concentration. Plates were then incubated at 37° C., 5% CO2. After three to five days of compound treatment, CellTiter-Glo® Reagent (#G7573, Promega, Madison, Wis.) was prepared in one of two ways. If thawing a frozen aliquot of CellTiter-Glo® Reagent, the aliquot was thawed and equilibrated to room temperature prior to use while keeping it protected from light. Alternatively, new bottles of CellTiter-Glo® Buffer and CellTiter-Glo® Substrate were thawed and equilibrated to room temperature prior to use. CellTiter-Glo® Buffer (100 mL) was transferred into the amber bottle containing CellTiter-Glo® Substrate to reconstitute the lyophilized enzyme/substrate mixture, forming the CellTiter-Glo® Reagent. The reconstituted reagent was mixed by gently inverting the contents to obtain a homogeneous solution, and went into solution easily in less than one minute. Any unused reconstituted CellTiter-Glo® Reagent was immediately aliquoted and frozen at −20° C., protected from light. Cell plates were equilibrated at room temperature for approximately 30 minutes. An equivolume amount of CellTiter-Glo® Reagent (100 μL) was added to each well. Plates were mixed for two minutes on an orbital shaker to induce cell lysis, and then allowed to incubate at room temperature for 10 minutes to stabilize the luminescent signal. Luminescence was recorded using the PerkinElmer EnVision Excite Multilabel Reader used for endpoint reading for Luminescence detection (Waltham, Mass.). Data were analyzed using a four-parameter fit in Microsoft Excel. […]

EGFR Del (PC9) = target: T2, EGFR Del (PC9) (Homo sapiens, UniProt P00533, DEL746-750); assay: EGFR ELISA, PC9 Del cells; settings: read-out: EGFR_ELISA9E PC9 Del IC50;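 note: cellular EGFR autophosphorylation at Tyr1068 quantified by sandwich ELISA of cell lysates after 2 h compound exposure at 37 °C, 11-point threefold dilution series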
T2 construct: endogenous in cells; host or cells: PC-9

EGFR L858R = EGFR L858R (Homo sapiens, UniProt P00533, L858R); assay: pEGFR Y1068 ELISA assay, NIH3T3/EGFR_L858R cells; settings: 3T3 cell line, 2 hrs compound treatment; read-out: pEGFRY1068 ELISA3T3 L858R IC50;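 note: sandwich ELISA of phospho-EGFR Tyr1068 in lysates of stably transfected NIH/3T3 pools after 2 h compound exposure at 37 °C, 11-point threefold dilution series run in duplicate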
PC9RK = assay: Cell proliferation assay (CellTiter-Glo), PC9RK; settings: value marked (PC9RK), read-out: 3T3 del_T790M IC50, (PC9RK)
Description: as §1, with “After three to five days of compound treatment, CellTiter-Glo® Reagent (#G7573, Promega, Madison, Wis.) was prepared in one of two ways. If thawing a frozen aliquot of CellTiter-Glo® Reagent, the aliquot was thawed and equilibrated to room temperature prior to use while keeping it protected from light. Alternatively, new bottles of CellTiter-Glo® Buffer and CellTiter-Glo® Substrate were thawed and equilibrated to room temperature prior to use. CellTiter-Glo® Buffer (100 mL) was transferred into the amber bottle containing CellTiter-Glo® Substrate to reconstitute the lyophilized enzyme/substrate mixture, forming the CellTiter-Glo® Reagent. The reconstituted reagent was mixed by gently inverting the contents to obtain a homogeneous solution, and went into solution easily in less than one minute. Any unused reconstituted CellTiter-Glo® Reagent was immediately aliquoted and frozen at −20° C., protected from light. Cell plates were equilibrated at room temperature for approximately 30 minutes. An equivolume amount of CellTiter-Glo® Reagent (100 μL) was added to each well. Plates were mixed for two minutes on an orbital shaker to induce cell lysis, and then allowed to incubate at room temperature for 10 minutes to stabilize the luminescent signal.” left out

NCI-H1975 = assay: Cell proliferation assay (CellTiter-Glo), NCI-H1975; settings: Homo sapiens, value marked (H1975), read-out: 3T3 L858R_T790M IC50, (H1975)
Description: as §1

NCI-H3255 = assay: Cell proliferation assay (CellTiter-Glo), NCI-H3255; settings: Homo sapiens, value marked (H3255), read-out: 3T3 L858R IC50, (H3255)
Description: as §1

EGFR L858R+T790M = EGFR L858R+T790M (Homo sapiens, UniProt P00533, L858R/T790M); assay: pEGFR Y1068 ELISA assay, NIH3T3/EGFR_L858R+T790M cells; settings: 3T3 cell line, 2 hrs compound treatment; read-out: pEGFRY1068 ELISA3T3T790M—L858R IC50;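 note: sandwich ELISA of EGFR phosphorylated at Tyr1068 in lysates of stably transfected NIH/3T3 cells, 11-point threefold dilution series run in duplicate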
[2] = target: T3, EGFR L858R+T790M, endogenous (Homo sapiens, UniProt P00533, L858R/T790M); assay: pEGFR Y1068 ELISA assay, NCI-H1975 cells; settings: value marked (H1975): NCI-H1975 cells, 2 hrs compound treatment; read-out: pEGFRY1068 ELISA3T3T790M—L858R IC50 (nM), (H1975);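 note: sandwich ELISA of endogenous phospho-EGFR (Tyr1068) in lysates of treated cells, 11-point 1:3 serial dilution tested in duplicate per plate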
T3 construct: NCI-H1975 (EGFR L858R+T790M, endogenous); host or cells: NCI-H1975

EGFR L858R, endogenous = target: T4, EGFR L858R, endogenous (Homo sapiens, UniProt P00533, L858R); assay: pEGFR Y1068 ELISA assay, NCI-H3255 cells; settings: value marked (H3255): NCI-H3255 cells, 2 hrs compound treatment; read-out: pEGFRY1068 ELISA3T3 L858R IC50 (nM), (H3255)
T4 construct: NCI-H3255 (EGFR L858R, endogenous); endogenous in cells; host or cells: NCI-H3255

Sequence of EGFR L858R (P00533 25-1210 L858R): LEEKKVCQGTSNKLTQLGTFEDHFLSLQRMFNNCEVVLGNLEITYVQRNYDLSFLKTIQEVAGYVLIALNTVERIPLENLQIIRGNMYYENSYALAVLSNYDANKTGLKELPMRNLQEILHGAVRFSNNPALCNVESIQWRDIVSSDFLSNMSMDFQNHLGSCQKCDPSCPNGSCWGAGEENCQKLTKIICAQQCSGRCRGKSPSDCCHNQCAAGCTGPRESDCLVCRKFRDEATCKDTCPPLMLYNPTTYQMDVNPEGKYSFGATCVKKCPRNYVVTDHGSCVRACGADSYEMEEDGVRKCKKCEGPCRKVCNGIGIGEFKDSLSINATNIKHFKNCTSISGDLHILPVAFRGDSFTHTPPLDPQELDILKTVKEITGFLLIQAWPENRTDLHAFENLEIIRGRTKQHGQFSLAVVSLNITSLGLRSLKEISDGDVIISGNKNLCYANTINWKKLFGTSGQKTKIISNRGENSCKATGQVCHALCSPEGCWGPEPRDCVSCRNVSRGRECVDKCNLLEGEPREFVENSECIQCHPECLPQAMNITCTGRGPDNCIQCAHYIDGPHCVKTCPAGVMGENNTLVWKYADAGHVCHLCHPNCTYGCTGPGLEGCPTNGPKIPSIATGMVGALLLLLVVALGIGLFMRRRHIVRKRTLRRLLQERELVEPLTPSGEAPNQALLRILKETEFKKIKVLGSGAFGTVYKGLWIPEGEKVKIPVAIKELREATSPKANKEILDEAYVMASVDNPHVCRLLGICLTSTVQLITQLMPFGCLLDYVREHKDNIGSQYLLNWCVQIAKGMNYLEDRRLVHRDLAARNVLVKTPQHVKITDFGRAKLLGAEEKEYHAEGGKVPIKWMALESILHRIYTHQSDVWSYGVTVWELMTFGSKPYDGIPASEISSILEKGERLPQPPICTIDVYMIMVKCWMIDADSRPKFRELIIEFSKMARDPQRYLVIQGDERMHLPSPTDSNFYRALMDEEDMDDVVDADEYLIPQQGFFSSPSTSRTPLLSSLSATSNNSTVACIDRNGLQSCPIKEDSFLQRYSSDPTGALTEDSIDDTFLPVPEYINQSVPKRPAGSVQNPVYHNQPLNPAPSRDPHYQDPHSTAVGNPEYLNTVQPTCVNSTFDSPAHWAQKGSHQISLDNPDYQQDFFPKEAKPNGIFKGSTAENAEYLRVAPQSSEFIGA
T1 sequence (P00533 25-1210): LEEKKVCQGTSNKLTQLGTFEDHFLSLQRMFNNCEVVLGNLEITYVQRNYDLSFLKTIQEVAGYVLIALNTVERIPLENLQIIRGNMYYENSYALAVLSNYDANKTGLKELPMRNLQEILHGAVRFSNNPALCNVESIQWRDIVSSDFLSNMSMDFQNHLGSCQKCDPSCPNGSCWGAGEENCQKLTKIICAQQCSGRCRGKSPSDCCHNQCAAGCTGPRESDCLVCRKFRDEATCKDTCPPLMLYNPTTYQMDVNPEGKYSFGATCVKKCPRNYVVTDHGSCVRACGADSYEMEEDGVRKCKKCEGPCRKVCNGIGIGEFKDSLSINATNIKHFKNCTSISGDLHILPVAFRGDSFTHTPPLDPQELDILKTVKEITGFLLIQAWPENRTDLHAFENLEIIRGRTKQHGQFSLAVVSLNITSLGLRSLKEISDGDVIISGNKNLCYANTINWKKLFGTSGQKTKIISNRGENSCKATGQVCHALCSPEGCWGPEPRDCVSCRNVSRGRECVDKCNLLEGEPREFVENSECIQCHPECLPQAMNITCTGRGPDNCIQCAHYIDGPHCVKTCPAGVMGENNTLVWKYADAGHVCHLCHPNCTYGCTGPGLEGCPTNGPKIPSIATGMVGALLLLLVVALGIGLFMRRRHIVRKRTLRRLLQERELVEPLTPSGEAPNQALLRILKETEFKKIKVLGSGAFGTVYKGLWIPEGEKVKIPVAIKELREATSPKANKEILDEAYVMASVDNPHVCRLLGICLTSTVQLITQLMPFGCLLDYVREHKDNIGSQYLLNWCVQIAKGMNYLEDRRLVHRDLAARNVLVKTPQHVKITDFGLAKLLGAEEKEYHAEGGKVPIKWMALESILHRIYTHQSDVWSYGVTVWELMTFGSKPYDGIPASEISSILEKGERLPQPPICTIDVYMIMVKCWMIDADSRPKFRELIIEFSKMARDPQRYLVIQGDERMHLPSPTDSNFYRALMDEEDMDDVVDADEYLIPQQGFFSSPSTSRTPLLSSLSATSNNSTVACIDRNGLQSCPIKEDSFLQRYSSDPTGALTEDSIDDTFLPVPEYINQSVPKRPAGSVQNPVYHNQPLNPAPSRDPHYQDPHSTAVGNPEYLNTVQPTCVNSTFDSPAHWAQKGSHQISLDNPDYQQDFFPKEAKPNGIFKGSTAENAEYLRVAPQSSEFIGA
T2 sequence (P00533 with tags, fused parts or gaps DEL746-750): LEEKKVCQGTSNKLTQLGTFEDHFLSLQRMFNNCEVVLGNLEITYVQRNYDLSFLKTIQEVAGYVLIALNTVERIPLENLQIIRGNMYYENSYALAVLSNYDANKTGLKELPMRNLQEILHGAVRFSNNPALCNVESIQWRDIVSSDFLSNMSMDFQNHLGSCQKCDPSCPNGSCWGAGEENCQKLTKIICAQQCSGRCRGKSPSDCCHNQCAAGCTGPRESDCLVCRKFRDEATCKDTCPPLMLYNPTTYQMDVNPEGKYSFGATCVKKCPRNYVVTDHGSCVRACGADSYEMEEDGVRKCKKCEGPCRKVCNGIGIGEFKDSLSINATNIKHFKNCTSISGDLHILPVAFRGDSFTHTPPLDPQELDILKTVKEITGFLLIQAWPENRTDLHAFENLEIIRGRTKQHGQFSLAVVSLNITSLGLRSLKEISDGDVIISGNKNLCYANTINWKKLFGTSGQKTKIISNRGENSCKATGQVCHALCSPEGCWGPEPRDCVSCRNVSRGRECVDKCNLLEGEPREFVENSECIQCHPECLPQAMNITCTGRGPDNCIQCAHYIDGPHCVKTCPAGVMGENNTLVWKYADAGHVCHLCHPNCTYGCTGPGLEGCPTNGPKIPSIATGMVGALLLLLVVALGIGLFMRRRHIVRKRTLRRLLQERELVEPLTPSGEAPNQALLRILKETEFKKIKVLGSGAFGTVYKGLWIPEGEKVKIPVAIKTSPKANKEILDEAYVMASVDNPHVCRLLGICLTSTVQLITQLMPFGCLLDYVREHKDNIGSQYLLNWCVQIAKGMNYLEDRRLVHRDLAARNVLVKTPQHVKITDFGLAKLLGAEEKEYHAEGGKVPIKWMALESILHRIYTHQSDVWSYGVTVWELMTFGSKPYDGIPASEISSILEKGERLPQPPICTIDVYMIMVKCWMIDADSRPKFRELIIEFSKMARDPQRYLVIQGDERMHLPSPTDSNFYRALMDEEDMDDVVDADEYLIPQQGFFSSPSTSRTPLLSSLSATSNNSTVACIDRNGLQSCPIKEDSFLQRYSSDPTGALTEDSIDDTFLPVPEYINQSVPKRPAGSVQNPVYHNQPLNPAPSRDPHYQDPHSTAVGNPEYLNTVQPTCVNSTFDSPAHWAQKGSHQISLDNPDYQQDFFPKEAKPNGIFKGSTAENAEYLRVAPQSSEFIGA
T3 sequence (P00533 25-1210 T790M/L858R): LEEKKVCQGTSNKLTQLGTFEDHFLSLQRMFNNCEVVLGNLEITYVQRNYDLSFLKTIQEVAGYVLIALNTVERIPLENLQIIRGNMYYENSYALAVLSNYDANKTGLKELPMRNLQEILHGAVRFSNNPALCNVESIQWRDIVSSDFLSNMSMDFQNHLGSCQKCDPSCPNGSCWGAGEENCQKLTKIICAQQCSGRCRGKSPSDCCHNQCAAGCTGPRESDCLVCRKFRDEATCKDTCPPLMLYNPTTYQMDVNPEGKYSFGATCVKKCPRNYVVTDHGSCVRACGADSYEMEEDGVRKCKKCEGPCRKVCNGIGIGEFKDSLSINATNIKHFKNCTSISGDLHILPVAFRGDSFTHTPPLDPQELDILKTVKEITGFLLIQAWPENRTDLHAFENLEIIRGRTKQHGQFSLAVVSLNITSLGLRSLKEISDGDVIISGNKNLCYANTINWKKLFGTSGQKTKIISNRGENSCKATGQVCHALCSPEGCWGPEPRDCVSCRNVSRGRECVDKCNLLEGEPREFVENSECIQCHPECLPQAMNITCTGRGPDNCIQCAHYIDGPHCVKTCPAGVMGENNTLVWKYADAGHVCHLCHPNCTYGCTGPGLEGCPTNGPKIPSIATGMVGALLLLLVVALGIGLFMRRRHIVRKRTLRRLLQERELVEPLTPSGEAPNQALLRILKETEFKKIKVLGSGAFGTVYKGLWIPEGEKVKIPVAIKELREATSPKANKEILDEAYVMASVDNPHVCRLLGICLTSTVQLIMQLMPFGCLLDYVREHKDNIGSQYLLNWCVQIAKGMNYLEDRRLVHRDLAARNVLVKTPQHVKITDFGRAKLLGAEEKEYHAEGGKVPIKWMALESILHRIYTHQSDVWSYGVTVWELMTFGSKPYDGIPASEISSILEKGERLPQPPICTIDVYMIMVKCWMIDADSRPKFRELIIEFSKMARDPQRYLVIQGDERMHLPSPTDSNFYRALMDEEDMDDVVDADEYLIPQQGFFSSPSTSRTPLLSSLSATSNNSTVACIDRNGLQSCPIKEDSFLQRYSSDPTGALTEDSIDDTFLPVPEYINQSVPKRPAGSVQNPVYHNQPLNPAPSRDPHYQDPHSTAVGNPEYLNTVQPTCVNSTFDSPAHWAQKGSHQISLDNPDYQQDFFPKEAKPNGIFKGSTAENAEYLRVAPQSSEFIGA

C=CC(=O)N[C@H]1C[C@@H](Oc2nc(Nc3cnn(C)c3)nc3[nH]cc(-c4cccnc4)c23)C1 [Example 109]
IC50 (EGFR E746-A750 deletion): 0.032 µM
IC50 [1]: 5.54 µM
IC50 (PC-9): 0.01 to 0.1 µM
IC50 (EGFR Del (PC9)): 0.029 µM
IC50 (EGFR L858R): 0.271 µM
IC50 (PC9RK): 0.1 to 1 µM
IC50 (NCI-H1975): 0.1 to 1 µM
IC50 (NCI-H3255): 0.1 to 1 µM
IC50 (EGFR L858R+T790M): 0.153 µM

C=CC(=O)N1C[C@H](COc2nc(Nc3cnn(CCO)c3)nc3[nH]cc(Cl)c23)[C@@H](OC)C1 [Example 101]
IC50 [2]: 48 nM
IC50 [1]: > 10 µM
IC50 (PC-9): > 1 µM
IC50 (EGFR Del (PC9)): 6.54 µM
IC50 (EGFR L858R): 1.01 µM
IC50 (PC9RK): 0.1 to 1 µM
IC50 (NCI-H1975): > 1 µM
IC50 (NCI-H3255): 0.1 to 1 µM

C=CC(=O)N1C[C@H](COc2nc(Nc3cnn([C@H]4CCOC4)c3)nc3[nH]cc(Cl)c23)[C@@H](OC)C1 [Example 102]
IC50 (EGFR E746-A750 deletion): 0.709 µM
IC50 [1]: 4.96 µM
IC50 (PC-9): 0.1 to 1 µM
IC50 (EGFR L858R): 0.297 µM
IC50 (PC9RK): 0.1 to 1 µM
IC50 (NCI-H1975): 0.1 to 1 µM
IC50 (NCI-H3255): 0.1 to 1 µM
IC50 (EGFR L858R+T790M): 0.021 µM

C=CC(=O)N[C@]1(C)C[C@H](Oc2nc(Nc3cnn(C)c3)nc3[nH]cc(Cl)c23)C1 [Example 114]
IC50 [2]: 39 nM
IC50 [1]: > 10 µM
IC50 (PC-9): 0.1 to 1 µM
IC50 (EGFR Del (PC9)): 1.2 µM
IC50 (EGFR L858R, endogenous): 667 nM
IC50 (PC9RK): 0.1 to 1 µM
IC50 (NCI-H1975): 0.1 to 1 µM
IC50 (NCI-H3255): 0.01 to 0.1 µM
